Entries after “also recorded” stand apart in the source; their conditions may differ.
Key:
[1] = system: EAE NOD mice; experiment: EAE in NOD mice, progressive phase (clinical score, histopathology, body weight); assay type: in vivo
[2] = system: IRF-1; experiment: IRF-1 translocation to the nucleus in astrocytes (western blot); assay type: cell-based, mouse; conditions: primary astrocytes, PDMP 25 μM or LacCer 10 μM, LPS/IFNγ 45 min
[3] = system: astrocytes; experiment: mRNA expression in astrocytes isolated from EAE NOD mice (nCounter, qPCR); assay type: in vivo, mouse
Experimental: Mononuclear cells were isolated from the CNS as previously described^50 with minor modifications. Naïve and EAE mice were euthanatized, and then subjected to perfusion through the left ventricle with ice-cold sterile PBS. Brains and spinal cord were then removed, minced and enzymatically dissociated with 0.05% (w/v) collagenase type III (Worthington Biochemical), 0.5% Dispase II (Roche Applied Science), 40 μg/ml DNAse I, 20 mM HEPES in HBSS) for 30 min at 37 C to make a suspension of single cells. Enzymes were inactivated with 20 ml of Ca^2+/Mg^2+-free HBSS containing 2 mM EDTA and 20 mM HEPES. The digested tissue was triturated and passed through a […] cell strainer. Cells were centrifuged and resuspended in 30% isotonic Percoll (GE Healthcare) and 40 μg/ml DNAse I, underlined by 70% isotonic Percoll, and centrifuged at 1000×g at 4° C. for 25 min. Cells were collected from the 70%-30% interphase, and sorted by FACS Aria.
These purification procedures are based on previously described dissociation and purification protocols^50,51. Isolated CNS cells, were incubated with anti-Mouse CD16/CD32 for 15 min on ice to block the Fc receptors, and stained with fluorochrome-conjugated antibody for CD11b (M1/70), CD45(90), CD3 (145-2C11), CD4 (GK1.5), and Ly6C (HK1.4), and Biotion-conjugated GSL I—isolectin B4 (Vector labs), CD105 (N418), CD140a (APA5), CD11c (N418), F4/80 (BM8), O4 (O4, Miltenyi Biotec), and CD19 (eBio1D3), and un-conjugated antibodies recognizing mouse MOG (8-18C5, Millipore), O1 (O1), and Galactocerebroside (mGlaC, Millipore). All antibodies were from Ebioscience, unless otherwise mentioned (clone number, when relevant, in parentheses). Cells were washed and incubated PE-conjugated Streptavidin and R-Phycoerythrin AffiniPure F(ab′)2 fragment of Goat Anti-Mouse IgG+IgM (H+L) (Jackson ImmunoResearch laboratories) for 20 min at 4 C in the dark. Cells were washed, incubated with 7-AAD or Fixable Viability Dye eFluor® 450 (if cells were to be used for intracellular staining), for exclusion of dead cells (FIG. S3A), and sorted as following. Microglia were sorted as CD11b^+ cells with low CD45 expression and low Ly6C (CD11b+/CD45^low/Ly6C^low), while the inflammatory monocytes were considered as CD11b^+/Ly6C^high 52. T-cells were sorted as CD3^+CD4^+ cells. Astrocytes were isolated following the depletion of lymphocytes, microglia, monocytes (FIG. S3B), and oligodendrocytes, and lymphocytes (T-cells, B-cells, and NK cells) (FIG. S3C). […] We confirmed that we had isolated a relatively pure populations of astrocytes by qPCR for the astrocyte markers^44,51 gfap, aldh1l1 and aqp4, and found them to be exclusively expressed in the astrocyte fraction (in a similar expression pattern to that of GFP^+ astrocytes sorted from Tg(GFP-hGFAP) FVB transgenic mice^49) (FIG. S3E). We used an additional cohort of markers to explore for presence of immune cells [microglia/monocytes cells—itgam (CD11b), and emr1 (F4/80), dendritic cells—itgax (CD11c), NK cells—Klrb1c (Nk1.1), T-cells—cd3, and B-cells—cd19], oligodendrocytes (mog, mbp), and neurons (syt1, snap25) (FIG. S3F, G).
100-200 ng of total RNA was hybridized with reporter and capture probes for nCounter Gene Expression code sets (Mouse Inflammation Kit, or a custom made astrocyte-oriented probe set (Table S1)), according to manufacturer's instructions (NanoString Technologies). Data were normalized to spiked positive controls and housekeeping genes (nSolver Analysis system). Transcript counts less than the mean of the negative control transcripts plus 2 standard deviations for each sample were considered background.
Nanostring generated gene expression data were analyzed by use of the Expander 6.06 platform^53. Genes were clustered using the unbiased CLICK algorithm, and each cluster was further analyzed for enrichments in transcription factors binding sites (promoter analysis).

In the case of `CCCCCCCCCC(=O)N[C@H](CN1CCOCC1)[C@H](O)c1ccccc1` [PDMP, D-threo-1-phenyl-2-decanoylamino-3-morpholino-1-propanol], the “disease progression, axonal loss” value ([1]; NOD EAE, 20 mg/kg i.p. twice a day from day 40, lumbar spinal cord, Bielschowsky's silver stain) is reported as “suppression of disease progression”, the “disease progression, demyelination” value ([1]; NOD EAE, 20 mg/kg i.p. twice a day from day 40, lumbar spinal cord, Luxol fast blue) is reported as “suppression of disease progression” and the “disease progression, clinical score” value ([1]; NOD EAE, 20 mg/kg i.p. twice a day from day 40 after EAE induction) is reported as “suppression of disease progression”. For the same compound, the “translocation of IRF-1 to the nucleus” value [2] was “interfered with this process”, the “expression of demyelination-associated genes in astrocytes” value ([3]; NOD EAE progressive phase) was “significant reduction” and the “expression of remyelination-associated genes in astrocytes” value ([3]; NOD EAE progressive phase) was “increased expression”. The “expression of representative cluster 2 genes (ccl2, ccl5, cxcl10, il1b, nos2, opn, H2-Aa, vim) in astrocytes” value ([3]; NOD EAE progressive phase (day 100), qPCR) was “suppressive effects” and the “irf1 and relB expression in astrocytes” value ([3]; NOD EAE, qPCR) was “subsequent suppression”.

With “shB4galt6: lentivirus-delivered shRNA against b4galt6 (TRCN0000334278; SEQ ID NO:3) (guide CGATGGACTGAACAATTTATTCTCGAGAATAAATTGTTCAGTCCACG)” the EAE disease progression ([1]; NOD EAE, i.c.v. 1×10^7 IU lentivirus at day 35) was “suppressed disease progression; also recorded: ameliorates disease severity”, the “b4galt6 and b4galt5 expression in astrocytes” value ([3]; NOD EAE, i.c.v. lentivirus at day 35, qPCR) was “astrocyte-specific knock-down” and the “csf2 expression in astrocytes” value ([3]; chronic NOD EAE, 10 days after i.c.v. shRNA lentivirus) was “significant decrease”.

For lactosylceramide [LacCer], the “EAE disease clinical symptoms” value ([1]; NOD mice, 10 μg per mouse i.p. every 3 days from day 35 after EAE induction) was “significant worsening of disease clinical symptoms” and the “translocation of IRF-1 to the nucleus” value [2] was “enhanced the translocation of IRF-1 to the nucleus”.

— patent publication US9927437B2, “Treating neurodegenerative disease” (THE BRIGHAM AND WOMEN'S HOSPITAL, INC., priority 2013, dated 2018)
